Reference: patent publication US12600724B2, “Indole alkaloid and preparation method and use thereof” (NANJING UNIVERSITY OF CHINESE MEDICINE, priority 2022, dated 2026)

Tested on: primary DRG neuron
Assay: Axon growth of primary DRG neurons (immunofluorescence, Neuro J)
Assay type: cell-based, C57BL/6J mice
Settings: Mus musculus, 24 hours, multiple of total axon length of a single DRG neuron relative to blank control group
Description: Diabetic peripheral neuropathy involved a sensory neuron first, and a main pathological change was axonal atrophy and degeneration, or even disappearance. […] Therefore, the compounds in the examples were added with the primary DRG neuron to incubate for a certain period of time, then the axon growth of the DRG neuron was detected by immunofluorescence, and an axon length was quantified by Neuro J, so as to evaluate the promotion effect of the compound on the axon growth of the peripheral sensory neuron.
Primary antibodies of mice anti-β-tubulin III used for fluorescent staining were purchased from Sigma Company, cell culture reagents were all purchased from Gibco Company, and DRG neuronal cells were taken from C57BL/6J mice. Specific experimental steps were as follows: fresh DRG of the C57 mice was extracted to digest into a single-cell suspension and then inoculated into a culture plate for adherent culture overnight, with vinblastine as a positive drug, the to-be-detected compounds S1 to S87 ([…]) synthesized in the above examples were given to incubate for 24 hours, then an original culture medium was removed, 4% paraformaldehyde was added into each well to fix for 15 minutes after PBS washing, the mixture was permeabilized with 0.3% TritonX-100 for 5 minutes and sealed at room temperature with 4% BSA for 1 hour, a primary antibody (1:1000) was incubated at 4° C. overnight, a goat anti-mouse fluorescent secondary antibody (1:300) was incubated at room temperature in the dark for 1 hour, and a sealed slide was imaged by a fluorescence microscope (Leica). According to the image, a total axon length of a single DRG neuron was tracked by a Neuro J plug-in in Image J software, and a multiple of the total axon length relative to that of the blank control group was calculated.

SMILES	fold induction at 10 µM
CC[C@@]12C=C(C(=O)NCC(=O)N[C@@H](CO)C(=O)O)n3c4c(c5ccccc53)CCN(CCC1)[C@H]42 [Compound S81]	11.9
CC[C@]12CCCN3CCc4c(n(c5ccccc45)[C@@](O)(C(=O)OC)C1)[C@@H]32 [Vincamine, reference compound]	9.5
CC[C@@]12C=C(C(=O)NCC(=O)N[C@@H](CS)C(=O)O)n3c4c(c5ccccc53)CCN(CCC1)[C@H]42 [Compound S76]	11.1
CC[C@@]12C=C(C(=O)N[C@H](C(=O)O)C(C)C)n3c4c(c5ccccc53)CCN(CCC1)[C@H]42 [Compound S74]	10.9
CC[C@@]12C=C(C(=O)NCC(=O)OCCOCCOC)n3c4c(c5ccccc53)CCN(CCC1)[C@H]42 [Compound S1]	9.7
CC[C@@]12C=C(C(=O)N[C@@H](CCCCN)C(=O)OCCOCCOCCOCCO)n3c4c(c5ccccc53)CCN(CCC1)[C@H]42 [Compound S40]	11.4
CC[C@@]12C=C(C(=O)N[C@@H](CO)C(=O)OCCOCCOCCOCCOC)n3c4c(c5ccccc53)CCN(CCC1)[C@H]42 [Compound S15]	11.3
CC[C@@]12C=C(C(=O)OCCC(=O)OCCOCCO)n3c4c(c5ccccc53)CCN(CCC1)[C@H]42 [Compound S56]	11.3
CC[C@@]12C=C(C(=O)N[C@@H](CC(N)=O)C(=O)OCCOCCOCCOCCOC)n3c4c(c5ccccc53)CCN(CCC1)[C@H]42 [Compound S16]	11.2
CC[C@@]12C=C(C(=O)NCC(=O)OCCOCCO)n3c4c(c5ccccc53)CCN(CCC1)[C@H]42 [Compound S24]	11.7
CC[C@@]12C=C(C(=O)NCC(=O)N[C@@H](C)C(=O)OCCOCCOCCO)n3c4c(c5ccccc53)CCN(CCC1)[C@H]42 [Compound S47]	11.2
CC[C@@]12C=C(C(=O)OCCCC(=O)OCCOCCOCCOCCO)n3c4c(c5ccccc53)CCN(CCC1)[C@H]42 [Compound S61]	11.3
CC[C@@]12C=C(C(=O)N[C@@H](Cc3ccccc3)C(=O)OCCOCCOCCOCCO)n3c4c(c5ccccc53)CCN(CCC1)[C@H]42 [Compound S33]	10.9
CC[C@@]12C=C(C(=O)NCC(=O)N[C@@H](CC(N)=O)C(=O)OCCOCCOCCOCCO)n3c4c(c5ccccc53)CCN(CCC1)[C@H]42 [Compound S49]	12
CC[C@@]12C=C(C(=O)N(C)CC(=O)OCCOCCOCCOCCO)n3c4c(c5ccccc53)CCN(CCC1)[C@H]42 [Compound S63]	10.9
CC[C@@]12C=C(C(=O)N[C@@H](C)C(=O)OCCOCCOCCOCCO)n3c4c(c5ccccc53)CCN(CCC1)[C@H]42 [Compound S29]	12.5
CC[C@@]12C=C(C(=O)N[C@@H](CC(C)C)C(=O)OCCOCCOCCOCCOC)n3c4c(c5ccccc53)CCN(CCC1)[C@H]42 [Compound S13]	11.6
CC[C@@]12C=C(C(=O)N[C@@H](CCC(N)=O)C(=O)OCCOCCOCCOCCO)n3c4c(c5ccccc53)CCN(CCC1)[C@H]42 [Compound S36]	11.7
CC[C@@]12C=C(C(=O)N[C@@H](CO)C(=O)O)n3c4c(c5ccccc53)CCN(CCC1)[C@H]42 [Compound S68]	11
CC[C@@]12C=C(C(=O)NCC(=O)N[C@@H](CC(C)C)C(=O)OCCOCCOCCOCCO)n3c4c(c5ccccc53)CCN(CCC1)[C@H]42 [Compound S51]	9.8
CC[C@@]12C=C(C(=O)NCC(=O)N[C@@H](CC(C)C)C(=O)OC)n3c4c(c5ccccc53)CCN(CCC1)[C@H]42 [Compound S86]	11
CC[C@@]12C=C(C(=O)OCCC(=O)OCCOCCOCCOCCO)n3c4c(c5ccccc53)CCN(CCC1)[C@H]42 [Compound S58]	11.4
CC[C@@]12C=C(C(=O)N[C@@H](CC(=O)O)C(=O)OCCOCCOCCOCCO)n3c4c(c5ccccc53)CCN(CCC1)[C@H]42 [Compound S42]	10.3
